In patent US9561288B2, “Combinations and modes of administration of therapeutic agents and combination therapy” (Abraxis BioScience, LLC, priority 2005, dated 2017):

Assays:
[1] = tested on: VEGF-A protein; experiment: VEGF-A protein in tumor extracts by ELISA
Description: All drugs and control saline were administered i.v. in a volume of 100 μl daily for 5 days. Mice were sacrificed, tumors were harvested and tumor cellular extracts were prepared. VEGF-A protein levels in tumor extracts were determined by ELISA.

[2] = tested on: MDA-MB-231 human breast cancer xenografts; experiment: MDA-MB-231 xenografts: tumor growth, necrosis, hypoxia (Example 24); settings: i.v. qdx5; Taxol® 10, Abraxane® 15, Doxorubicin 10 mg/kg/day
[3] = tested on: MCF7-S breast carcinoma; experiment: Cytotoxic activity in MCF7-S; format: cell-based, human
[4] = tested on: MCF7-R (pgp+) multidrug resistant variant
Description: (§1) Its cytotoxicity was also assessed against the NCI-60 human tumor cell line panel.

[5] = tested on: NCI-60 human tumor cell line panel; experiment: NCI-60 human tumor cell line panel; format: cell-based; settings: NCI 60 panel
Description: as §1

[6] = tested on: Abraxane®-treated cells; experiment: In vitro cellular cytotoxicity assay with VEGF-A or Avastin®; format: cell-based; settings: Abraxane® 1 to 24 nM
Description: Cells were treated with Abraxane® in a range of concentrations (1 to 24 nM).

[7] = tested on: Abraxane®-treated cells; experiment: In vitro clonogenic assay; format: cell-based
Description: Cells were treated with saline control, Abraxane® alone, VEGF-A alone, Avastin® alone, Abraxane®+VEGF-A or Abraxane®+Avastin®.

[8] = tested on: Luciferase-expressing MDA-MB-231 human breast cancer xenografts; experiment: Luciferase-expressing MDA-MB-231 xenografts, tumor growth (Example 26); format: in vivo, nude (nu/nu) mice
Description: Abraxane®, either alone or in combination, was administered at 10 mg/kg/day daily for 5 days in two cycles separated by 1 week. […] Mice were monitored for tumor growth and drug toxicity. Mice were sacrificed when the mean tumor volume in the saline-treated control group reached 2000 mm^3.
Tumor growth inhibition (TGI) was calculated by comparing mean tumor volume of test groups to that of the control group at the last measurement of the control group.

[9] = tested on: MDA-MB-231-Luc+ human breast cancer xenografts; experiment: MDA-MB-231-Luc+ xenografts, one or two cycles of Abraxane® with Avastin® (Example 29); format: in vivo, nude (nu/nu) mice; settings: for % Complete Regression: day 65
Description: One or two cycles of Abraxane® were administered. In two-cycle Abraxane® treatment, a second cycle of Abraxane® (10 mg/kg, i.v. qd×5) was administered one week after conclusion of the first cycle.

[10] = tested on: MDA-MB-435-Luc+ tumors; experiment: MDA-MB-435-Luc+ tumor growth (Example 31); format: in vivo, ICR SCID mice
Description: MDA-MB-435-Luc+ (“435-Luc+”) cells were implanted subcutaneously into the mammary fat pad of 4 to 6 week old female ICR SCID mice (Taconic, Hudson, N.Y.). Every 2-3 days, perpendicular tumor diameters were measured by digital caliper and used to calculate tumor volume according to the formula: volume=Dd^2π/6, where D=larger diameter and d=smaller diameter. […] Animal care was in accordance with institutional guidelines.
Two cycles of Abraxane® treatment were administered, each for 5 consecutive days with one week of rest between cycles. […] To allow maximal development of metastatic foci, mice were sacrificed when the average tumor volume in the control group reached 2000 mm^3.

[11] = tested on: lymph node metastasis of MDA-MB-435-Luc+; experiment: MDA-MB-435-Luc+ lymph node metastasis; format: in vivo, ICR SCID mice; settings: ABX 10 mg/kg two cycles; Avastin® 4 mg/kg
Description: Two cycles of Abraxane® treatment were administered, each for 5 consecutive days with one week of rest between cycles. […] The control group received PBS injected i.v. or i.p. […] Lymph nodes and lungs were excised, washed in PBS, and homogenized in 0.35 ml of cold CCLR buffer (Promega, Madison, Wis.) containing a protease inhibitor cocktail and PMSF (Sigma, Mo.). Cell debris was removed by centrifugation. Protein concentrations of cleared lysates were determined by Bradford assay (Bio-Rad, Hercules, Calif.). […] CCLR buffer without tissue homogenates and lymph nodes or lungs of non-tumor bearing mice were assayed for background signal and subtracted from the results. The net results were expressed as relative light units (“RLU”) normalized per mg of total lysate protein. […] This value was chosen because it was the minimal signal reproducibly detected above background in metastatic tissues, independently confirmed by immunohistochemical detection (data not shown). Differences in lymph node and lung metastases were assessed for statistical significance by Fisher's exact test using GraphPad InStat (GraphPad Inc., San Diego, Calif.) or SPSS 14.0 (SPSS, Inc., Chicago, Ill.).

[12] = tested on: pulmonary metastasis of MDA-MB-435-Luc+; experiment: MDA-MB-435-Luc+ pulmonary metastasis; format: in vivo, ICR SCID mice; settings: ABX 10 mg/kg two cycles; Avastin® 4 mg/kg
Description: Tumor metastasis was determined by measuring luciferase activity in tissue extracts derived from 10 axillary lymph nodes (“LN”) and both lobes of the lungs. Lymph nodes and lungs were excised, washed in PBS, and homogenized in 0.35 ml of cold CCLR buffer (Promega, Madison, Wis.) containing a protease inhibitor cocktail and PMSF (Sigma, Mo.). Cell debris was removed by centrifugation. Protein concentrations of cleared lysates were determined by Bradford assay (Bio-Rad, Hercules, Calif.). Fifty μl of Luciferase Assay Reagent (Promega, Madison, Wis.) was mixed with 10 μl of cleared lysate and a 10 second average of luminescence was detected using a single tube luminometer (Berthold, Germany). […] The net results were expressed as relative light units (“RLU”) normalized per mg of total lysate protein. […] Differences in lymph node and lung metastases were assessed for statistical significance by Fisher's exact test using GraphPad InStat (GraphPad Inc., San Diego, Calif.) or SPSS 14.0 (SPSS, Inc., Chicago, Ill.).

[13] = tested on: MDA-MB-231-Luc+ lymphatic and pulmonary metastases; experiment: Lymphatic and pulmonary metastasis of well-established 231-Luc+ tumors (Example 32); format: in vivo, nu/nu mice; settings: Abraxane® 30 mg/kg qd×5; Avastin® 4 mg/kg q2×wkly; tumors ~460 mm^3
Description: MDA-MB-231 or 231-Luc^+ cells were implanted into the MFP of 4 to 6 week old female nu/nu mice (Harlan Sprague-Delaney, Indianapolis, Ind.) by standard methods. Briefly, mice were anesthetized and 100 μl of cell suspension containing 4×10^6 cells and 50% Matrigel (Sigma, Mo.) were injected into the MFP. Every 2-3 days, perpendicular tumor diameters were measured by digital caliper and used to calculate tumor volume according to the formula: Volume=Dd^2π/6, where D=larger diameter and d=smaller diameter. […] Animal care was in accordance with institutional guidelines.
Luciferase-expressing orthotopic MDA-MB-231 (231-Luc+) xenografts were grown to well-established tumors (˜460 mm^3) and randomized to four groups of N=5, 6 or 7.
Metastases of MDA-MB-231-Luc+ tumor cells were identified by measuring luciferase activity in tissue extracts from lymph nodes and lungs, as described in Example 31 above. […] This value was chosen because it represented the minimal signal which could be reproducibly detected above background in tissues in which metastases were independently confirmed by immunohistochemical detection of human cells. The net results were expressed as relative light units (RLU) normalized per mg of total lysate protein, and are presented in FIG. 17A (lymphatic metastasis) and FIG. 17B (pulmonary metastasis).

[14] = tested on: MDA-MB-435 human breast tumor xenografts; experiment: MDA-MB-435 human tumor xenografts treated with HKP, Abraxane® or both; format: in vivo, mice; settings: nineteen weeks; HKP 250 ug i.v. weekly x16; Abraxane® 10 mg/kg/day i.v. x5 days
Description: Methods: MDA-MB-435 human tumor xenografts were established at an average tumor volume of 100 mm^3, mice were randomized into groups of 12-13 animals and treated with HKP, Abraxane®, or HKP and Abraxane®. HKP was delivered i.v. (250 ug), once a week, for 16 weeks. Abraxane® was administered i.v., daily for 5 days at 10 mg/kg/day only for the first week of treatment. The Abraxane® dose used was substantially below its MTD (30 mg/kg/day, qd×5) to prevent the tumor from complete regression so effect of HKP could be noted.

[15] = Experiment No. 1: one cycle, Avastin® 2 mg/kg
[16] = Experiment No. 2: two cycles, Avastin® 4 mg/kg

In the case of `COc1cccc2c1C(=O)c1c(O)c3c(c(O)c1C2=O)C[C@@](O)(C(=O)CO)C[C@@H]3O[C@H]1C[C@H](N)[C@H](O)[C@H](C)O1` [Doxorubicin], the VEGF-A ([1]; tumor extracts, i.v. qdx5) is reported as 754 ± 49 pg/mg protein, the “increase in VEGF-A protein levels” value ([1]; vs saline control) is reported as 124% and the “% TGI” value [2] is reported as 45%. The “Mean Tumor Volume” value [2] was 287 ± 56 mm^3.

With `COc1cc2c(c(OC)c1OC)-c1ccc(SC)c(=O)cc1[C@@H](NC(=O)CCNC(=O)N[C@H]1CCc3cc(OC)c(OC)c(OC)c3-c3ccc(SC)c(=O)cc31)CC2` [IDN5404] the IC50 [3] was 1.7 ± 0.1 nM, the “fold resistance MCF7-R vs MCF7-S” value [4] was greater than 10 fold and the IC50 ([4]; MCF7-R) was 40 ± 3.8 nM. It also gave an IC50 [5] of less than 10 nM.

With “Avastin®: anti-VEGF antibody bevacizumab” the “effect of addition on in vitro cytotoxicity of Abraxane®” value [6] was “increased the in vitro cytotoxicity of Abraxane®”, the “number of colonies formed” value [7] was “slight reduction in the number of colonies formed” and the “% TGI” value ([8]; Abraxane® 10 mg/kg/day two cycles, Avastin® 4 mg/kg) was 12.56%. For the same molecule, the “Mean Tumor Volume” value ([8]; Abraxane® 10 mg/kg/day x5 days, two cycles, Avastin® 4 mg/kg twice a week for 6 weeks) was 2089 ± 251 mm^3, the “% Complete Regression” value ([8]; day 65, Abraxane® two cycles, Avastin® 4 mg/kg) was 0% and the “Mean Tumor Volume” value ([9]; Experiment No. 1: one cycle of Abraxane® 10 mg/kg, Avastin® 2 mg/kg) was 953 ± 127 mm^3. The “% TGI” value [9, 15] was 54.16%, the “% Complete Regression” value [9, 15] was 0% and the “% TGD” value ([9]; Experiment No. 1: one cycle, Avastin® 2 mg/kg, time to 1000 mm^3 vs control) was 13%. The “Mean Tumor Volume” value ([9]; Experiment No. 2: two cycles of Abraxane® 10 mg/kg, Avastin® 4 mg/kg) was 2089 ± 251 mm^3, the “% TGD” value [9, 16] was 7% and the “% TGI” value [9, 16] was 12.56%. The “% Complete Regression” value [9, 16] was 0%, the “% Complete Regressions” value ([10]; 92 days) was 0% and the “tumor volume” value ([10]; ABX 10 mg/kg i.v. qd×5 two cycles, Avastin® 4 mg/kg i.p. twice a week) was 792 mm^3. The “% TGI” value ([10]; ABX 10 mg/kg two cycles, Avastin® 4 mg/kg) was 60.79%, the “Lymph node metastasis % Inhibition vs. Control” value [11] was 100% and the “Pulmonary metastasis % Inhibition vs. Control” value [12] was 50%. The “lymphatic and pulmonary metastases” value [13] was “failed to prevent metastasis”.

For CNGRC-GG-d(KLAKLAK)2 [HKP], the tumor volume [14] was 4,372 mm^3.
